# From patent US20240358829A1, “Lymphocyte Population and Methods for Producing Same” (AVM Biotechnology, LLC, priority 2021, published 2024)
# “Also recorded” adds a separate entry of the source.
# System: R/R NHL
# Test: AVM0703 R/R NHL clinical trial, clinical and PET/CT response, survival
# Format: in vivo, human
# [1] = patient 108-001, after the second 9 mg/kg infusion
smiles,measurement,setting,value
"C[C@@H]1C[C@H]2[C@@H]3CCC4=CC(=O)C=C[C@]4(C)[C@@]3(F)[C@@H](O)C[C@]2(C)[C@@]1(O)C(=O)COP(=O)(O)O [AVM0703, dexamethasone sodium phosphate]",Survival from 1st AVM0703 (months),"patient 101-001, B-ALL, 6 mg/kg X1",4.8 months
same,Survival from 1st AVM0703 (months),"patient 103-002, PTCL, 6 mg/kg X1",7 months
same,Survival from 1st AVM0703 (months),"patient 103-004, T-ALL, 6 mg/kg X1",2.7 months
same,Survival from 1st AVM0703 (months),"patient 103-005, MCL, 9 mg/kg X1",8.3 months
same,Survival from 1st AVM0703 (months),"patient 103-006, DLBCL, 9 mg/kg X1, ongoing",>12.6 months
same,Survival from 1st AVM0703 (months),"patient 103-007, MCL, 12 mg/kg X1, ongoing",>7.6 months
same,Survival from 1st AVM0703 (months),"patient 103-008, DLBCL, 18 mg/kg X1, ongoing",>2.1 months
same,clinical response,"patient 108-001, 9 mg/kg, day 3 after 1st infusion",restoration of vision
same,Survival from 1st AVM0703 (months),"patient 108-001, CNS B-ALL, 9 mg/kg X3, ongoing",>11.8 months
same,CNS solid tumor,[1],not evident
same,reduction of CSF blasts,[1],40%
same,response to the third infusion,"patient 108-001, third 9 mg/kg infusion",loss of response
same,Survival from 1st AVM0703 (months),"patient 108-002, PTCL, 18 mg/kg X1, ongoing",>10.3 months
same,central Lugano 28 Day,"patient 108-002, PTCL, 18 mg/kg, monotherapy",PR with SD
same,Survival from 1st AVM0703 (months),"patient 108-003, AITCL, 12 mg/kg X2, ongoing",>10.2 months
same,"objective beneficial response (PET/CT, clinical chemistries, CBCs or clinical symptoms)","patient 108-004, 12 mg/kg",did not have any objective clinical beneficial response; also recorded: did not have an objective beneficial response; also recorded: no response to treatment
same,Survival from 1st AVM0703 (months),"patient 108-004, DLBCL, 12 mg/kg X1, ongoing",>8 months
